Patent publication US4196205A, “3-Acetoxymethyl-7-(iminoacetamido)-cephalosporanic acid derivatives” (priority 1976, dated 1980)
Read-outs that look alike come from different tables or passages of the source.

Tests used:
[1] = test system: Bacillus subtilis ATCC 6 633; test: MIC, dilution in liquid medium; type: cell-based
Description: (§1) The method used was a dilution of a liquid medium where a series of tubes received the same quantity of a sterile nutritive media and increasing doses of the test compounds were placed therein. Then each tube was seeded with a bacterial strain and was incubated for 24 to 48 hours at 37° C. in an oven. The increasing inhibition was determined by transillumination to determine the minimum inhibiting concentration (MIC in […]) and the results are reported in the following Tables.

[2] = test system: Escherichia Coli Exp. TO26 B6; test: MIC, dilution in liquid medium; type: cell-based
Description: as §1

[3] = test system: Escherichia Coli Resistant Gentamicine, Tobramycine R 55 123 D; test: MIC, dilution in liquid medium; type: cell-based
Description: as §1

[4] = test system: Escherichia Coli Resistant Tetracycline ATCC 11 303 = UC 1261; test: MIC, dilution in liquid medium; type: cell-based
Description: as §1

[5] = test system: Escherichia Coli Sensible Tetracycline ATCC 9 637 = 1020; test: MIC, dilution in liquid medium; type: cell-based
Description: as §1

[6] = test system: Klebsiella pneumoniae 2 536 Resistant Gentamicine; test: MIC, dilution in liquid medium; type: cell-based
Description: as §1

[7] = test system: Klebsiella pneumoniae Exp. 52 145; test: MIC, dilution in liquid medium; type: cell-based
Description: as §1

[8] = test system: Proteus mirabilis (indol-) A 235; test: MIC, dilution in liquid medium; type: cell-based
Description: as §1

[9] = test system: Proteus vulgaris (indol+) A 232; test: MIC, dilution in liquid medium; type: cell-based; conditions: Proteus vulgaris, read-out: M.I.C.
Description: as §1

Providencia Du 48 = test: MIC, dilution in liquid medium; type: cell-based
Description: as §1

[10] = test system: Pseudomonas 3 935 Exp. SG; test: MIC, dilution in liquid medium; type: cell-based
Description: as §1

[11] = test system: Salmonella typhimurium 420; test: MIC, dilution in liquid medium; type: cell-based
Description: as §1

[12] = test system: Staphylococcus aureus ATCC 5 638 Pen-Sensible = UC 1061; test: MIC, dilution in liquid medium; type: cell-based; conditions: 48 h
Description: as §1

[13] = test system: Staphylococcus aureus UC 1 128 Pen-Resistant; test: MIC, dilution in liquid medium; type: cell-based
Description: as §1

[14] = test system: Staphylococcus aureus exp. n° 54 146; test: MIC, dilution in liquid medium; type: cell-based
Description: as §1

[15] = test system: Streptococcus faecalis 5 432; test: MIC, dilution in liquid medium; type: cell-based
Description: as §1

[16] = test system: Streptococcus faecalis 99 F 74; test: MIC, dilution in liquid medium; type: cell-based
Description: as §1

[17] = test system: Streptococcus pyogenes A 561; test: MIC, dilution in liquid medium; type: cell-based
Description: as §1

[18] = test system: Salmonella typhimurium 5210; test: Experimental infection with Salmonella typhimurium in mice; type: in vivo
Description: Groups of 10 mice with an average weight of 20.5 g were intraperitoneally injected with 0.5 ml of a 24 hour old culture in oxoid bouillon of Salmonella typhimurium 5210 diluted 1/75 with distilled water. The product of Example 7 was administered subcutaneously one hour and 4, 8, 24 and 32 hours after the infection and the results, determined as before, are reported in the following Table.

Acute toxicity in mice = type: in vivo, female mice of Swiss CD1 Specific Pathogen Free Strain; conditions: for Total Mortality: 4 days
Description: The acute toxicity of the product of Example 7 was determined on groups of 8 to 10 female mice of Swiss CD1 Specific Pathogen Free Strain (stock CH.River-France), with an average weight of 19 to 21 g, for each dose of the compound.
The animals had injection in the caudal vein in a variable volume at a rate of 1 ml/mn of the product of Example 7 dissolved at a concentration of 100 mg/ml in sterile apyrogen distilled water.

Compound: CO/N=C(\C(=O)N[C@@H]1C(=O)N2C(C(=O)O)=C(COC(C)=O)CS[C@H]12)c1csc(N)n1 [Example 7, sodium 3-acetoxymethyl-7-[2-(2-amino-4-thiazolyl)-2-methoxyiminoacetamido]-ceph-3-eme-4-carboxylate]
- M.I.C. ([1]; 24 H): 1 µg/mL
- M.I.C. ([1]; 48 H): 2 µg/mL
- M.I.C. ([2]; 24 H): 0,05 μg/ml
- M.I.C. ([2]; 48 H): 0,05 μg/ml
- M.I.C. ([3]; 24 H): 0,1 μg/ml
- M.I.C. ([3]; 48 H): 0,1 μg/ml
- M.I.C. ([4]; 24 H): ≤ 0,02 μg/ml
- M.I.C. ([4]; 48 H): ≤ 0,02 μg/ml
- M.I.C. ([5]; 24 H): 0,1 μg/ml
- MIC ([5]; Escherichia coli, ATCC9, 48 h, 48 H, read-out: M.I.C.): 0.1 µg/mL
- M.I.C. ([6]; 24 H): 0,2 μg/ml
- M.I.C. ([6]; 48 H): 0,2 μg/ml
- M.I.C. ([7]; 24 H): ≤ 0,02 μg/ml
- M.I.C. ([7]; 48 H): ≤ 0.02 µg/mL
- M.I.C. ([8]; 24 H): ≤ 0,02 μg/ml
- M.I.C. ([8]; 48 H): ≤ 0,02 μg/ml
- MIC ([9]; 24 h): 0.2 µg/mL
- MIC ([9]; 48 h): 0.6 µg/mL
- M.I.C. (Providencia Du 48; 24 H): 1 µg/mL
- M.I.C. (Providencia Du 48; 48 H): 2 µg/mL
- M.I.C. ([10]; 24 H): 10 µg/mL
- M.I.C. ([10]; 48 H): 20 µg/mL
- M.I.C. ([11]; 24 H): 0,1 μg/ml
- M.I.C. ([11]; 48 H): 20 µg/mL
- MIC [12]: 2 µg/mL
- M.I.C. ([13]; 24 H): 2 µg/mL
- M.I.C. ([13]; 48 H): 3 µg/mL
- M.I.C. ([14]; 48 H): 2 µg/mL
- MIC ([14]; Staphylococcus aureus, 24 h): 2 µg/mL
- M.I.C. ([15]; 24 H): 1 µg/mL
- M.I.C. ([15]; 48 H): 3 µg/mL
- M.I.C. ([16]; 24 H): 3 µg/mL
- MIC ([16]; Enterococcus faecalis, 99F74, 48 h, read-out: M.I.C.): 10 µg/mL
- M.I.C. ([17]; 24 H): 0,01 μg/ml
- M.I.C. ([17]; 48 H): 0,01 μg/ml
- MORTALITY AFTER 6J ([18]; 0,1 mg subcutaneously): 3
- MORTALITY AFTER 7J ([18]; 0,1 mg subcutaneously): 3
- MORTALITY AFTER 8J ([18]; 0,1 mg subcutaneously): 1
- Mice alive on the 10th day ([18]; 0,1 mg subcutaneously): 3/10
- MORTALITY AFTER 5J ([18]; 0,5 mg subcutaneously): 1
- MORTALITY AFTER 6J ([18]; 0,5 mg subcutaneously): 1
- MORTALITY AFTER 7J ([18]; 0,5 mg subcutaneously): 1
- Mice alive on the 10th day ([18]; 0,5 mg subcutaneously): 7/10
- MORTALITY AFTER 7J ([18]; 0,25 mg subcutaneously): 2
- MORTALITY AFTER 8J ([18]; 0,25 mg subcutaneously): 1
- MORTALITY AFTER 9J ([18]; 0,25 mg subcutaneously): 2
- Mice alive on the 10th day ([18]; 0,25 mg subcutaneously): 5/10
- MORTALITY AFTER 8J ([18]; 1 mg subcutaneously): 1
- Mice alive on the 10th day ([18]; 1 mg subcutaneously): 9/10
- Mice alive on the 10th day ([18]; 2 mg subcutaneously): 10/10
- lethal dose (Acute toxicity in mice; caudal vein, mice): above 2000 mg/kg
- Total Mortality (Acute toxicity in mice; dose 500 mg, caudal vein): 0/10
- Total Mortality (Acute toxicity in mice; dose 1000 mg, caudal vein): 0/10
- Total Mortality (Acute toxicity in mice; dose 2000 mg, caudal vein): 0/8
- Symptomatology (Acute toxicity in mice; following the injections and during the observation period): No symptoms of intoxication were noted
